Laboratory results from patent US8735414B2 (priority 2009, dated 2014).

Assays:
[1] = tested on: bicistronic HCV replicon (replicon RNA, GenBank Accession No. AJ242654); assay: HCV Replicon Assay; assay type: cell-based; settings: Hepatitis C virus, 72 h, read-out: Replicon IC50

In the case of `C[C@@H](NS(=O)(=O)c1ccc(-c2c(C#N)c3ccc(F)cc3n2C2CCCC2)nc1)C(F)(F)F` [compound 218, 6-(3-cyano-1-cyclopentyl-6-fluoro-1H-indol-2-yl)-N-[(2R)-1,1,1-trifluoropropan-2-yl]pyridine-3-sulfonamide], the IC50 [1] is reported as under 500 nM and the melting point is reported as 141 to 144 °C.
Molecule `C[C@@H](NS(=O)(=O)c1ccc(-c2c(C#N)c3cc(F)ccc3n2C2CCC2)nc1)C(F)(F)F` [compound 219, 6-(3-cyano-1-cyclobutyl-5-fluoro-1H-indol-2-yl)-N-[(2R)-1,1,1-trifluoropropan-2-yl]pyridine-3-sulfonamide] has an IC50 [1] of under 500 nM and a melting point of 109 to 110 °C.
With `C[C@@H](NS(=O)(=O)c1ccc(-c2c(C#N)c3cc(F)ccc3n2C2CCCC2)nc1)C(F)(F)F` [compound 220, 6-(3-cyano-1-cyclopentyl-5-fluoro-1H-indol-2-yl)-N-[(2R)-1,1,1-trifluoropropan-2-yl]pyridine-3-sulfonamide] the IC50 [1] was under 500 nM and the melting point was 158 to 160 °C.
In the case of `N#Cc1c(-c2ncc(S(=O)(=O)NC(CF)CF)cn2)n(CC2CC2)c2ccc(Cl)cc12` [compound 221, 2-[5-chloro-3-cyano-1-(cyclopropylmethyl)-1H-indol-2-yl]-N-(1,3-difluoropropan-2-yl)pyrimidine-5-sulfonamide], the IC50 [1] is reported as under 500 nM and the melting point is reported as 245 to 250 °C.
`C[C@@H](NS(=O)(=O)c1ccc(-c2c(C#N)c3ccc(Cl)cc3n2C2CCC2)nc1)C(F)(F)F` [compound 222, 6-(6-chloro-3-cyano-1-cyclobutyl-1H-indol-2-yl)-N-[(2R)-1,1,1-trifluoropropan-2-yl]pyridine-3-sulfonamide] showed an IC50 [1] of under 500 nM and a melting point of 202 to 206 °C.
Work on `COc1cc2c(cc1F)c(C#N)c(-c1ccc(S(=O)(=O)NC(CF)CF)cn1)n2CC1CC1` [compound 225, 6-[3-cyano-1-(cyclopropylmethyl)-5-fluoro-6-methoxy-1H-indol-2-yl]-N-(1,3-difluoropropan-2-yl)pyridine-3-sulfonamide] yielded an IC50 [1] of under 500 nM and a melting point of 196 to 199 °C.
`N#Cc1c(-c2ccc(S(=O)(=O)NC(CF)CF)cn2)n(-c2ccccc2)c2cc(OC(F)F)ccc12` [compound 226, 6-[3-cyano-6-(difluoromethoxy)-1-phenyl-1H-indol-2-yl]-N-(1,3-difluoropropan-2-yl)pyridine-3-sulfonamide] showed an IC50 [1] of under 500 nM and a melting point of 200 to 202 °C.
`N#Cc1c(-c2ccc(S(=O)(=O)NC(CF)CF)cn2)n(-c2ccccc2F)c2cc(OC(F)F)ccc12` [compound 227, 6-[3-cyano-6-(difluoromethoxy)-1-(2-fluorophenyl)-1H-indol-2-yl]-N-(1,3-difluoropropan-2-yl)pyridine-3-sulfonamide] showed an IC50 [1] of under 500 nM and a melting point of 188 to 191 °C.
Molecule `N#Cc1c(-c2ccc(S(=O)(=O)NC(CF)CF)cn2)n(-c2ccc(F)cc2)c2cc(OC(F)F)ccc12` [compound 228, 6-[3-cyano-6-(difluoromethoxy)-1-(4-fluorophenyl)-1H-indol-2-yl]-N-(1,3-difluoropropan-2-yl)pyridine-3-sulfonamide] has an IC50 [1] of under 500 nM and a melting point of 192 to 198 °C.
For `COc1ccc2c(C#N)c(-c3ccc(S(=O)(=O)NC(CF)CF)cn3)n(C3CCC3)c2c1` [compound 229, 6-(3-cyano-1-cyclobutyl-6-methoxy-1H-indol-2-yl)-N-(1,3-difluoropropan-2-yl)pyridine-3-sulfonamide], the IC50 [1] was under 500 nM and the melting point was 174 to 177 °C.
In the case of `COc1ccc2c(C#N)c(-c3ncc(S(=O)(=O)NC(CF)CF)cn3)n(C3CCC3)c2c1` [compound 230, 2-(3-cyano-1-cyclobutyl-6-methoxy-1H-indol-2-yl)-N-(1,3-difluoropropan-2-yl)pyrimidine-5-sulfonamide], the IC50 [1] is reported as under 500 nM and the melting point is reported as 217 to 219 °C.
Work on `COc1ccc2c(C#N)c(-c3ncc(S(=O)(=O)NC(CF)CF)cn3)n(C3CCCC3)c2c1` [compound 231, 2-(3-cyano-1-cyclopentyl-6-methoxy-1H-indol-2-yl)-N-(1,3-difluoropropan-2-yl)pyrimidine-5-sulfonamide] yielded an IC50 [1] of under 500 nM and a melting point of 232 to 234 °C.
